The values that follow come from PubChem BioAssay AID296 (DTP/NCI, 2004).

Molecules are shown by their SMILES. Several values for one entry are separate records, joined by “and”; a condition that tells them apart may be missing. Equal values may be shown once. Records with an inconclusive call do not appear.

This experiment has as its system MX-1 breast xenograft, nude mice, tumor weight T/C. Briefly: NCI In Vivo Anticancer Drug Screen. Data for tumor model Human Mammary Carcinoma MX-1 Xenograft (intrarenal inoculation) in NU/NU Swiss (nude) mice. Conditions: endpoint: mean tumor weight change, higher = larger tumour. The method, boiled down:
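Activity is given as a ratio, with each measurement in the compound-treated arm divided by the matching measurement in vehicle-dosed controls. Tumour size or survival serves as the measured parameter.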

[1] abbreviates: dose: 25.0 mg/kg/injection, schedule: Q04DX003 (sc), vehicle: saline.
The mark [2] stands for this setting: dose: 50.0 mg/kg/injection, schedule: Q04DX003 (sc), vehicle: saline with Tween-80.
Setting [3] is: dose: 50.0 mg/kg/injection, schedule: Q04DX003 (sc), vehicle: saline.
Setting [4] is: dose: 100.0 mg/kg/injection, schedule: Q04DX003 (sc), vehicle: saline with Tween-80.
[5] abbreviates: dose: 100.0 mg/kg/injection, schedule: Q04DX003 (sc), vehicle: saline.
Where [6] appears, read: dose: 300.0 mg/kg/injection, schedule: Q04DX003 (sc), vehicle: saline with Tween-80.
[7] abbreviates: dose: 600.0 mg/kg/injection, schedule: Q04DX003 (sc), vehicle: saline with Tween-80.
[8] abbreviates: dose: 2400.0 mg/kg/injection, schedule: Q04DX003 (sc), vehicle: saline with Tween-80.
Setting [9] is: dose: 1200.0 mg/kg/injection, schedule: Q04DX003 (sc), vehicle: saline with Tween-80.
[10] abbreviates: dose: 600.0 mg/kg/injection, schedule: Q04DX003 (sc), vehicle: Klucel (hydroxypropylcellulose) (HPC).
The mark [11] stands for this setting: dose: 8.0 mg/kg/injection, schedule: Q04DX003 (sc), vehicle: saline with Tween-80.
Where [12] appears, read: dose: 3.13 mg/kg/injection, schedule: Q01DX010 (sc), vehicle: saline.
Setting [13] is: dose: 6.25 mg/kg/injection, schedule: Q01DX010 (sc), vehicle: saline.

On to `CN(N=O)C(N)=O`, for which the T/C runs as follows: (dose: 12.5 mg/kg/injection, schedule: Q01DX010 (sc), vehicle: saline with Tween-80) 41 % of control; (dose: 12.5 mg/kg/injection, schedule: Q04DX003 (sc), vehicle: saline) 83 % of control; under setting [1], 54 % of control; (dose: 25.0 mg/kg/injection, schedule: Q04DX003 (sc), vehicle: suspension in saline) 54 % of control; under setting [2], 17 % of control; under setting [3], 6 % of control. Further, the T/C by setting is: (dose: 50.0 mg/kg/injection, schedule: Q04DX003 (sc), vehicle: suspension in saline) 63 % of control; under setting [4], -68 % of control; under setting [5], -100 % of control; (dose: 100.0 mg/kg/injection, schedule: Q04DX003 (sc), vehicle: suspension in saline) 17 % of control.

In the case of `CC(=O)C(=O)O.CC(=O)C(=O)O.[NH-]C1CCCCC1[NH-].[Pt+2]` (configuration not stated), the T/C (dose: 6.25 mg/kg/injection, schedule: Q04DX003 (ip), vehicle: other) is 46 % of control; the T/C (dose: 12.5 mg/kg/injection, schedule: Q04DX003 (ip), vehicle: other) was 74 % of control; the T/C (dose: 25.0 mg/kg/injection, schedule: Q04DX003 (ip), vehicle: other) is 45 % of control; the T/C (dose: 50.0 mg/kg/injection, schedule: Q04DX003 (ip), vehicle: other) was 12 % of control; the T/C (dose: 100.0 mg/kg/injection, schedule: Q04DX003 (ip), vehicle: other) is 9 % of control.

Regarding `CCN=C=NCCCN(C)C`, the T/C under setting [1] is 112 % of control and the T/C under setting [3] is 76 % of control.

As to `c1cc[c]([Sn]([NH]c2ncnc3[nH]cnc23)([NH]c2ncnc3[nH]cnc23)[c]2ccccc2)cc1`, the T/C by setting is: (dose: 75.0 mg/kg/injection, schedule: Q04DX003 (sc), vehicle: suspension in saline) 76 % of control; (dose: 150.0 mg/kg/injection, schedule: Q04DX003 (sc), vehicle: suspension in saline) 109 % of control; (dose: 300.0 mg/kg/injection, schedule: Q04DX003 (sc), vehicle: suspension in saline) 111 % of control; (dose: 600.0 mg/kg/injection, schedule: Q04DX003 (sc), vehicle: suspension in saline) 76 % of control.

As for `COC1=CC(=O)C(OC)=C(OC)C1=O`, the T/C runs as follows: (dose: 37.5 mg/kg/injection, schedule: Q04DX003 (sc), vehicle: saline with Tween-80) 86 % of control; (dose: 150.0 mg/kg/injection, schedule: Q04DX003 (sc), vehicle: saline with Tween-80) 93 % of control.

`Cc1cc(O)c(N=Nc2ccc(C(=O)O)cc2)cc1C`: the T/C reads like this: under setting [6], 123 % of control; under setting [7], 124 % of control; under setting [8], 92 % of control.

In the case of `Nc1nc(N)c(N=O)c(Nc2ccc(Br)cc2)n1`, the T/C is 42 % of control under setting [6], 42 % of control under setting [7], 38 % of control under setting [9] and 40 % of control under setting [8].

Regarding `O=S(=O)(SC(S(=O)(=O)c1ccccc1)S(=O)(=O)c1ccccc1)c1ccccc1`, the T/C is 68 % of control (dose: 100.0 mg/kg/injection, schedule: Q04DX003 (sc), vehicle: Klucel (hydroxypropylcellulose) (HPC)); 42 % of control (dose: 200.0 mg/kg/injection, schedule: Q04DX003 (sc), vehicle: Klucel (hydroxypropylcellulose) (HPC)); 84 % of control (dose: 400.0 mg/kg/injection, schedule: Q04DX003 (sc), vehicle: Klucel (hydroxypropylcellulose) (HPC)); 100 % of control under setting [10]; 87 % of control and 98 % of control (dose: 800.0 mg/kg/injection, schedule: Q04DX003 (sc), vehicle: Klucel (hydroxypropylcellulose) (HPC)); 112 % of control (dose: 1600.0 mg/kg/injection, schedule: Q04DX003 (sc), vehicle: Klucel (hydroxypropylcellulose) (HPC)).

Consider `CC1=C[S+](c2ccccc2)c2cccc3cc4ccccc4c1c23` (configuration not stated), for which the T/C runs as follows: under setting [11], 69 % of control; (dose: 16.0 mg/kg/injection, schedule: Q04DX003 (sc), vehicle: saline with Tween-80) 75 % of control.

As to `OCCO`, the T/C runs as follows: (dose: 8.0 % in 0.5 ml injection vol, schedule: Q04DX003 (sc), vehicle: water) 69 % of control; (dose: 16.0 % in 0.5 ml injection vol, schedule: Q04DX003 (sc), vehicle: water) 87 % of control.

Take `O=C(/C=C(\Cl)C(=O)NO)NO`: the T/C is, setting by setting: under setting [3], 93 % of control; under setting [5], 80 % of control; (dose: 200.0 mg/kg/injection, schedule: Q04DX003 (sc), vehicle: saline) 77 % of control.

Regarding `COC(=O)Nc1nc2ccc(C3(c4ccc(F)cc4)OCCO3)cc2[nH]1`, the T/C is 100 % of control under setting [2] and 79 % of control under setting [4].

On to `C[n+]1c2cc(N)ccc2cc2ccc(N)cc21`, for which the T/C was 79 % of control (dose: 1.56 mg/kg/injection, schedule: Q01DX010 (sc), vehicle: saline); 66 % of control under setting [12]; 100 % of control under setting [13].

For `O=C(O)CSc1nc(-c2ccccc2)c(-c2ccccc2)n1-c1ccccn1`, the T/C is, setting by setting: (dose: 50.0 mg/kg/injection, schedule: Q01DX010 (sc), vehicle: water) 196 % of control; (dose: 100.0 mg/kg/injection, schedule: Q01DX010 (sc), vehicle: water) 50 % of control; (dose: 200.0 mg/kg/injection, schedule: Q01DX010 (sc), vehicle: water) 78 % of control.

As for `O=C(NC1CCCCC1)OCc1c(COC(=O)NC2CCCCC2)c(-c2ccc(Cl)c(Cl)c2)n2c1CCC2`, the T/C is 114 % of control under setting [6], 114 % of control under setting [7], 107 % of control under setting [9] and 109 % of control under setting [8].

Take `OCC1OC(n2cnc3c2NC=NC[C@H]3O)CC1O` (some centres not stated): the T/C is, setting by setting: (dose: 1.0 mg/kg/injection, schedule: Q01DX010 (sc), vehicle: water) 124 % of control; (dose: 2.0 mg/kg/injection, schedule: Q01DX010 (sc), vehicle: water) 41 % of control; (dose: 8.0 mg/kg/injection, schedule: Q01DX010 (sc), vehicle: water) 28 % of control.

`NC(=O)c1ccc[n+](Cc2c(Cl)cccc2Cl)c1`: the T/C under setting [3] was 92 % of control and the T/C under setting [5] was 100 % of control.

Take `Cc1cc(NC(=S)SCc2ccc3c(c2)OCO3)ccc1Cl`: the T/C was 106 % of control (dose: 150.0 mg/kg/injection, schedule: Q04DX003 (sc), vehicle: Klucel (hydroxypropylcellulose) (HPC)); 104 % of control (dose: 300.0 mg/kg/injection, schedule: Q04DX003 (sc), vehicle: Klucel (hydroxypropylcellulose) (HPC)); 118 % of control under setting [10]; 88 % of control (dose: 1200.0 mg/kg/injection, schedule: Q04DX003 (sc), vehicle: Klucel (hydroxypropylcellulose) (HPC)).

`N=[N+]=CC(=O)OCC(N)C(=O)O` (configuration not stated): the T/C under setting [12] is -57 % of control and -53 % of control; the T/C under setting [13] was -69 % of control and -54 % of control; the T/C (dose: 12.5 mg/kg/injection, schedule: Q01DX010 (sc), vehicle: saline) is -81 % of control and -71 % of control; the T/C (dose: 25.0 mg/kg/injection, schedule: Q01DX010 (sc), vehicle: saline) is -80 % of control.

As to `CC[C@@]1(O)C(=O)OCc2c1cc1n(c2=O)Cc2cc3ccccc3nc2-1`, the T/C is, setting by setting: (dose: 1.0 mg/kg/injection, schedule: Q04DX003 (sc), vehicle: saline with Tween-80) 100 % of control; (dose: 2.0 mg/kg/injection, schedule: Q04DX003 (sc), vehicle: saline with Tween-80) 58 % of control; (dose: 4.0 mg/kg/injection, schedule: Q04DX003 (sc), vehicle: saline with Tween-80) 23 % of control; under setting [11], 11 % of control.
